Experiment in all cases: Antifungal susceptibility testing (minimum inhibitory concentration), soyabean casein digest broth
Assay type in all cases: cell-based

For one assay, the system named is F. proliferatum. The settings on record: Fusarium proliferatum; end points after 48 hours, visually / spectrophotometer; NI till x = no inhibition up to x; read-out: Activity against organisms In μg/ml, F. proliferatum (minimum inhibitory concentration). The protocol: (§1) In vitro evaluation of antifungal activity can be performed by determining the minimum inhibitory concentration. Anti-fungal susceptibility testing of these anti-fungal compounds was done by conventional method using soyabean casein digest broth. Known anti-fungal agents like Fluconazole and amphotericin-B were used as positive control. End points were determined after 48 hours visually and by using Spectrophotometer wherever necessary. Different dilutions were tried and the set of experiments.

The subject of a further assay is C. albicans. The settings on record: Candida albicans; end points after 48 hours, visually / spectrophotometer; NI till x = no inhibition up to x; read-out: Activity against organisms In μg/ml, C. albicans (minimum inhibitory concentration). The protocol: as §1
A further assay concerns A. niger. Conditions: Aspergillus niger; end points after 48 hours, visually / spectrophotometer; NI till x = no inhibition up to x; read-out: Activity against organisms In μg/ml, A. niger (minimum inhibitory concentration). The procedure:
as §1

Molecules are shown by their SMILES. Converted amounts (≈) assume the structure as drawn.

As to `O=C1OC(COC(=O)c2cc(Br)c(Br)s2)C=C1c1cccc(Cl)c1` (stereo not drawn) [1FB, 4-(3-chlorophenyl)-5-oxo-2,5-dihydrofuran-2-ylmethyl 4,5-dibromothiophene-2-carboxylate], the MIC in the assay with F. proliferatum lay in the range of 1 to 2 µg/mL (≈ 2.03 to 4.06 µM); in the assay on C. albicans, 1 to 2 µg/mL (≈ 2.03 to 4.06 µM); in the assay with A. niger, 2 to 4 µg/mL (≈ 4.06 to 8.12 µM).
In the case of `COc1ccc(C2=CC(COC(=O)c3ccccc3)OC2=O)cc1Br` (stereo not drawn) [1AE, 3-bromo-4-methoxyphenyl-5-benzoyloxymethyl-2H,5H-furan-2-one], the MIC in the assay with F. proliferatum, in the assay on C. albicans and in the assay on A. niger was more than 2 µg/mL in each case.
With `O=C(CCCCl)OCC1C=C(c2cccc(F)c2)C(=O)O1` (stereo not drawn) [1HD, 4-(3-fluorophenyl)-5-oxo-2,5-dihydrofuran-2-ylmethyl 4-chlorobutyrate], the MIC in the assay with F. proliferatum, in the assay with C. albicans and in the assay with A. niger was 1 to 2 µg/mL (≈ 3.2 to 6.4 µM) in each case.
On to `O=C1OC(COC(=O)c2ccccc2)C=C1c1cccc(Br)c1` (stereo not drawn) [1AC, 3-bromophenyl-5-benzoyloxymethyl-2H,5H-furan-2-one], for which the MIC amounted to 0.5 µg/mL (≈ 1.34 µM) in the assay with F. proliferatum, 2 µg/mL (≈ 5.36 µM) in the assay on C. albicans and 4 µg/mL (≈ 10.7 µM) in the assay on A. niger.
Turning to `O=C1OC(COC(=O)c2ccc[nH]2)C=C1c1cccc(Cl)c1` (stereo not drawn) [1KB, 4-(3-chlorophenyl)-5-oxo-2,5-dihydrofuran-2-ylmethyl pyrrole-2-carboxylate], the MIC with F. proliferatum is 1 to 2 µg/mL (≈ 3.15 to 6.29 µM); in the assay with C. albicans, 0.5 to 1 µg/mL (≈ 1.57 to 3.15 µM); with A. niger it was 1 to 2 µg/mL (≈ 3.15 to 6.29 µM).
With `COc1ccc(C2=CC(COC(=O)c3cccc(I)c3)OC2=O)cc1Br` (stereo not drawn) [1JE, 4-(3-bromo-4-methoxyphenyl)-5-oxo-2,5-dihydrofuran-2-ylmethyl 3-iodobenzoate], the MIC in the assay with F. proliferatum, in the assay on C. albicans and in the assay with A. niger was more than 2 µg/mL in each case.
